IC50 data for 22 molecules are collected here from patent US9745283B2, “Uracil derivatives as AXL and c-MET kinase inhibitors” (priority 2011, dated 2017).

Experiment [1] has as its target recombinant human baculovirus-expressed cMET (Homo sapiens (Human), UniProt P08581). The experiment can be described thus: C-MET Kinase Assay (HTRF KinEASE). It is filed as biochemical. The conditions noted are these: average of two or more determinations; read-out: c-MET IC50. In short, it runs like this:
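HTRF KinEASE format with recombinant human baculovirus-expressed cMET at 8 ng/mL, biotinylated peptide at 0.1 μM and ATP at 0.02 μM. IC50 came from percent control activity versus log concentration, fitted by nonlinear regression to a variable-slope sigmoidal equation with bottom fixed at 0 and top at 100.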
(In general: TR-FRET usually uses a lanthanide donor and a delayed reading to cut background.)

Experiment [2] concerns the target recombinant human baculovirus-expressed AXL (Homo sapiens (Human), UniProt P30530). The experiment can be described thus: AXL Kinase Assay (HTRF KinEASE). In kind it is biochemical. The conditions noted are these: average of two or more determinations.

Consider `COc1cc2nccc(Oc3ccc(NC(=O)c4cn(CC5CCOCC5)c(=O)n(-c5ccc(F)cc5)c4=O)cc3F)c2cc1OC` [Example 74, 3-(4-Fluoro-phenyl)-2,4-dioxo-1-(tetrahydro-pyran-4-ylmethyl)-1,2,3,4-tetrahydro-pyrimidine-5-carboxylic acid [4-(6,7-dimethoxy-quinolin-4-yloxy)-3-fluoro-phenyl]-amide], for which the IC50 was 0.01 to 0.1 µM in experiment [1] and below 0.01 µM in experiment [2].

Regarding `COc1cc2nccc(Oc3ccc(NC(=O)c4cn(Cc5ccccc5)c(=O)n(-c5ccc(F)cc5)c4=O)cc3F)c2cc1OC` [Example 77, 1-Benzyl-3-(4-fluoro-phenyl)-2,4-dioxo-1,2,3,4-tetrahydro-pyrimidine-5-carboxylic acid [4-(6,7-dimethoxy-quinolin-4-yloxy)-3-fluoro-phenyl]-amide], the IC50 is 0.01 to 0.1 µM in experiment [1] and below 0.01 µM in experiment [2].

On to `COc1cc2nccc(Oc3ccc(NC(=O)c4cn(CCc5ccccc5F)c(=O)n(-c5ccc(F)cc5)c4=O)cc3F)c2cc1OC` [Example 78, 3-(4-Fluoro-phenyl)-1-[2-(2-fluoro-phenyl)-ethyl]-2,4-dioxo-1,2,3,4-tetrahydro-pyrimidine-5-carboxylic acid [4-(6,7-dimethoxy-quinolin-4-yloxy)-3-fluoro-phenyl]-amide], for which the IC50 in experiment [1] is 0.01 to 0.1 µM; in experiment [2] it was below 0.01 µM.

In the case of `COc1cc2nccc(Oc3ccc(NC(=O)c4cn(CCc5ccc(F)cc5)c(=O)n(-c5ccc(F)cc5)c4=O)cc3F)c2cc1OC` [Example 79, 3-(4-Fluoro-phenyl)-1-[2-(4-fluoro-phenyl)-ethyl]-2,4-dioxo-1,2,3,4-tetrahydro-pyrimidine-5-carboxylic acid [4-(6,7-dimethoxy-quinolin-4-yloxy)-3-fluoro-phenyl]-amide], the IC50 in experiment [1] is 0.01 to 0.1 µM; in experiment [2], below 0.01 µM.

On to `COc1cc2nccc(Oc3ccc(NC(=O)c4cn(CC(=O)N5CCCC5)c(=O)n(-c5ccc(F)cc5)c4=O)cc3F)c2cc1OC` [Example 82, 3-(4-Fluoro-phenyl)-2,4-dioxo-1-(2-oxo-2-pyrrolidin-1-yl-ethyl)-1,2,3,4-tetrahydro-pyrimidine-5-carboxylic acid [4-(6,7-dimethoxy-quinolin-4-yloxy)-3-fluoro-phenyl]-amide], for which the results for the IC50 in experiment [1] and in experiment [2] were 0.01 to 0.1 µM and below 0.01 µM, respectively.

Consider `COc1cc2nccc(Oc3ccc(NC(=O)c4cn(CC(=O)N(C)C)c(=O)n(-c5ccc(F)cc5)c4=O)cc3F)c2cc1OC` [Example 83, 1-Dimethylcarbamoylmethyl-3-(4-fluorophenyl)-2,4-dioxo-1,2,3,4-tetrahydro-pyrimidine-5-carboxylic acid [4-(6,7-dimethoxy-quinolin-4-yloxy)-3-fluorophenyl]-amide], for which the figures for the IC50 in experiment [1] and in experiment [2] were 0.01 to 0.1 µM and below 0.01 µM, respectively.

Take `COc1cc2nccc(Oc3ccc(NC(=O)c4c[nH]c(=O)n(-c5ccc(F)cc5)c4=O)c(F)c3)c2cc1OC` [Example 85, 3-(4-Fluoro-phenyl)-2,4-dioxo-1,2,3,4-tetrahydro-pyrimidine-5-carboxylic acid [4-(6,7-dimethoxy-quinolin-4-yloxy)-2-fluoro-phenyl]-amide]: the IC50 in experiment [1] and in experiment [2] was below 0.01 µM in each case.

As for `COc1cc2nccc(Oc3ccc(NC(=O)c4cn(C)c(=O)n(-c5ccc(F)cc5)c4=O)c(F)c3)c2cc1OC` [Example 86, 3-(4-Fluoro-phenyl)-1-methyl-2,4-dioxo-1,2,3,4-tetrahydro-pyrimidine-5-carboxylic acid [4-(6,7-dimethoxy-quinolin-4-yloxy)-2-fluoro-phenyl]-amide], the values for the IC50 in experiment [1] and in experiment [2] were 0.01 to 0.1 µM and below 0.01 µM, respectively.

As to `CCn1cc(C(=O)Nc2ccc(Oc3ccnc4cc(OC)c(OC)cc34)cc2F)c(=O)n(-c2ccc(F)cc2)c1=O` [Example 87, 1-Ethyl-3-(4-fluoro-phenyl)-2,4-dioxo-1,2,3,4-tetrahydro-pyrimidine-5-carboxylic acid [4-(6,7-dimethoxy-quinolin-4-yloxy)-2-fluoro-phenyl]-amide], the values for the IC50 in experiment [1] and in experiment [2] were 0.01 to 0.1 µM and below 0.01 µM, respectively.

Regarding `C=CCn1cc(C(=O)Nc2ccc(Oc3ccnc4cc(OC)c(OC)cc34)cc2F)c(=O)n(-c2ccc(F)cc2)c1=O` [Example 88, 1-Allyl-3-(4-fluoro-phenyl)-2,4-dioxo-1,2,3,4-tetrahydro-pyrimidine-5-carboxylic acid [4-(6,7-dimethoxy-quinolin-4-yloxy)-2-fluoro-phenyl]-amide], the IC50 in experiment [1] was 0.01 to 0.1 µM; in experiment [2], below 0.01 µM.

With `CCn1cc(C(=O)Nc2cc(F)c(Oc3ccnc4cc(OC)c(OC)cc34)c(F)c2)c(=O)n(-c2ccc(F)cc2)c1=O` [Example 90, 1-Ethyl-3-(4-fluoro-phenyl)-2,4-dioxo-1,2,3,4-tetrahydro-pyrimidine-5-carboxylic acid [4-(6,7-dimethoxy-quinolin-4-yloxy)-3,5-difluoro-phenyl]-amide], the IC50 in experiment [1] is 0.01 to 0.1 µM; in experiment [2] it was below 0.01 µM.

On to `CCn1c(=O)c(C(=O)Nc2ccc(Oc3ccnc4cc(OC)c(OC)cc34)c(F)c2)cn(-c2ccc(F)cc2)c1=O` [Example 91, 3-Ethyl-1-(4-fluoro-phenyl)-2,4-dioxo-1,2,3,4-tetrahydro-pyrimidine-5-carboxylic acid [4-(6,7-dimethoxy-quinolin-4-yloxy)-3-fluoro-phenyl]-amide], for which the IC50 in experiment [1] is 0.01 to 0.1 µM; in experiment [2], below 0.01 µM.

As for `CCn1cc(C(=O)Nc2ccc(Oc3ccnc4cc(OC)c(OC)cc34)c(F)c2)c(=O)n(-c2ccccc2)c1=O` [Example 100, 1-Ethyl-2,4-dioxo-3-phenyl-1,2,3,4-tetrahydro-pyrimidine-5-carboxylic acid [4-(6,7-dimethoxy-quinolin-4-yloxy)-3-fluoro-phenyl]-amide], the values for the IC50 in experiment [1] and in experiment [2] were 0.01 to 0.1 µM and below 0.01 µM, respectively.

As for `COc1cc2nccc(Oc3ccc(NC(=O)c4cn(C(C)C)c(=O)n(-c5ccccc5)c4=O)cc3F)c2cc1OC` [Example 101, 1-Isopropyl-2,4-dioxo-3-phenyl-1,2,3,4-tetrahydro-pyrimidine-5-carboxylic acid [4-(6,7-dimethoxy-quinolin-4-yloxy)-3-fluoro-phenyl]-amide], the IC50 in experiment [1] was 0.01 to 0.1 µM; in experiment [2] it was below 0.01 µM.

For `CCCn1cc(C(=O)Nc2ccc(C(=O)c3ccnc4cc(OC)c(OC)cc34)c(F)c2)c(=O)n(-c2ccc(F)cc2)c1=O` [Example 102, 3-(4-Fluoro-phenyl)-2,4-dioxo-1-propyl-1,2,3,4-tetrahydro-pyrimidine-5-carboxylic acid [4-(6,7-dimethoxy-quinoline-4-carbonyl)-3-fluoro-phenyl]-amide], the IC50 in experiment [1] and in experiment [2] was below 0.01 µM each time.

As for `COc1cc2nccc(Oc3ccc(NC(=O)c4nn(C(C)C)c(=O)n(-c5ccc(F)cc5)c4=O)cc3F)c2cc1OC` [Example 103, 4-(4-Fluoro-phenyl)-2-isopropyl-3,5-dioxo-2,3,4,5-tetrahydro-[1,2,4]triazine-6-carboxylic acid [4-(6,7-dimethoxy-quinolin-4-yloxy)-3-fluoro-phenyl]-amide], the figures for the IC50 in experiment [1] and in experiment [2] were 0.01 to 0.1 µM and below 0.01 µM, respectively.

With `COc1cc2nccc(Oc3ccc(NC(=O)c4nn(C)c(=O)n(-c5ccc(F)cc5)c4=O)cc3F)c2cc1OC` [Example 104, 4-(4-Fluorophenyl)-2-methyl-3,5-dioxo-2,3,4,5-tetrahydro-[1,2,4]triazine-6-carboxylic acid [4-(6,7-dimethoxy-quinolin-4-yloxy)-3-fluoro-phenyl]-amide], the IC50 in experiment [1] and in experiment [2] was below 0.01 µM in each case.

With `CCn1nc(C(=O)Nc2ccc(Oc3ccnc4cc(OC)c(OC)cc34)c(F)c2)c(=O)n(-c2ccc(F)cc2)c1=O` [Example 105, 2-Ethyl-4-(4-fluoro-phenyl)-3,5-dioxo-2,3,4,5-tetrahydro-[1,2,4]triazine-6-carboxylic acid [4-(6,7-dimethoxy-quinolin-4-yloxy)-3-fluoro-phenyl]-amide], the IC50 in experiment [1] was 0.01 to 0.1 µM; in experiment [2] it was below 0.01 µM.

As for `CC(C)n1nc(C(=O)Nc2ccc(Oc3ccnc4cc5c(cc34)OCCO5)c(F)c2)c(=O)n(-c2ccc(F)cc2)c1=O` [Example 106, 4-(4-Fluorophenyl)-2-isopropyl-3,5-dioxo-2,3,4,5-tetrahydro-[1,2,4]triazine-6-carboxylic acid [4-(2,3-dihydro-[1,4]dioxino[2,3-g]quinolin-9-yloxy)-3-fluorophenyl]-amide], the IC50 in experiment [1] is 0.01 to 0.1 µM; in experiment [2], below 0.01 µM.

For the molecule `COc1cc2nccc(Oc3ccc(NC(=O)c4n[nH]c(=O)n(-c5ccc(F)cc5)c4=O)cc3F)c2cc1OC` [Example 107, 4-(4-Fluoro-phenyl)-3,5-dioxo-2,3,4,5-tetrahydro-[1,2,4]triazine-6-carboxylic acid [4-(6,7-dimethoxy-quinolin-4-yloxy)-3-fluoro-phenyl]-amide], the IC50 in experiment [1] and in experiment [2] was below 0.01 µM in each case.

For the molecule `COc1cc2nccc(Oc3ccc(NC(=O)c4nn(CCO)c(=O)n(-c5ccc(F)cc5)c4=O)cc3F)c2cc1OC` [Example 108, 4-(4-Fluorophenyl)-2-(2-hydroxyethyl)-3,5-dioxo-2,3,4,5-tetrahydro-[1,2,4]triazine-6-carboxylic acid [4-(6,7-dimethoxyquinolin-4-yloxy)-3-fluorophenyl]-amide], the IC50 in experiment [1] and in experiment [2] was below 0.01 µM each time.

Consider `COc1cc2nccc(Oc3ccc(NC(=O)c4nn(C(C)C)c(=O)n(-c5ccc(F)cc5)c4=O)nc3)c2cc1OC` [Example 110, 4-(4-Fluoro-phenyl)-2-isopropyl-3,5-dioxo-2,3,4,5-tetrahydro-[1,2,4]triazine-6-carboxylic acid [5-(6,7-dimethoxy-quinolin-4-yloxy)-pyridin-2-yl]-amide], for which the figures for the IC50 in experiment [1] and in experiment [2] were 0.01 to 0.1 µM and below 0.01 µM, respectively.

One may read the IC50 as the point on the concentration scale where inhibition reaches its midpoint.
